Assays:
[1] = molecular target: recombinant human DNAJB1-PKAc (Homo sapiens, UniProt P17612+P25685); test: Fluorescence polarization direct binding of fluorescein-labeled peptides; conditions: FP, N-terminally FAM-labeled peptide 0.5 nM, DNAJ-PKA-C 3 µM to 30 pM, 20 mM MOPS pH 7, 150 mM NaCl, 0.005% CHAPS, 1 mM ATP, 10 mM MgCl2, room temperature, mean and SD of three independent measurements
Procedure: To determine the binding affinity of the truncated library toward the catalytic subunit of PKA, fluorescence polarization (FP) experiments were performed using N-terminally fluorescein-labeled PKI-derived peptides incubated with a range of concentrations of recombinant human DNAJB1-PKAc (Figure 2). The DNAJB1-PKAc chimera is a clinically relevant protein identified in fibrolamellar hepatocellular carcinoma (FL-HCC) patients that combines the chaperonin-binding domain of heat-shock protein 40 (HSP40/DNAJ) with the catalytic (c) subunit of PKA.[34] The active site of the DNAJB1-PKAc protein is identical to native PKAc and retains inhibition by PKI with a nearly identical binding conformation.[35] […] To generate the StIP-TAC, several PEG linker lengths were conjugated with the thalidomide-derived Cereblon Ligand 1 and preliminarily tested (PEG3 to PEG9; Figure S2). All PEG lengths appeared to yield compound activity, and thus the PEG8 linker was chosen to provide greater flexibility to the overall compound. […]
Fluorescence Polarization (FP) Assay. Binding studies for the truncated peptide library to DNAJ-PKA-C were performed according to protocols described previously 21.
FAM-labeled peptides were plated to a final concentration of 0.5 nM after the addition of protein in 384-well microtiter plates. A tenfold dilution series of DNAJ-PKA-C were mixed in peptide wells to have 6 final concentrations ranging from 3 µM to 30 pM.
Assays were performed using FP buffer (20 mM MOPS pH 7, 150 mM NaCl, 0.005% CHAPS, 1 mM ATP, 10 mM MgCl2) at room temperature. All data were obtained using a BioTek Synergy 2 microplate reader using the following settings: excitation/emission/dichroic filters: 485-20 nm/528-20 nm/510 nm, 50 flashes per well, settling time 0.1 s. Non-linear regression (sigmoidal dose-response) was performed using GraphPad Prism 6.01 on FP signals plotted against log-scale protein concentrations to determine equilibrium dissociation constants (KD). Data analysis was performed using GraphPad Prism (Dotmatics). […]

phospho VASP = test: VASP phosphorylation in forskolin-stimulated cells, Western blot; format: cell-based; conditions: MDA-MB-231 cells, 50 µM H89 added 30 min before 50 µM forskolin (30 min); n = 3
Procedure: (§1) Next, we sought to assess whether StIP-TAC could also downregulate PKAc signaling in cells. For this experiment, cells were treated with forskolin to stimulate PKAc activity. Cells were either treated with DMSO, the small molecule PKAc inhibitor H89, StIP-TAC alone, or StIP-TAC with SAINT protein (Figure 4; Figure S7). […] (Figure 4C,D). A known PKA substrate, vasodilator-stimulated phosphoprotein (VASP),[42] was also probed for PKA-mediated phosphorylation (Figure S8).
Cell-based PROTAC activity assays. MDA-MB-231 cells were grown on 6-well tissue culture plates (BD Biosciences). Cells were serum-starved for 24 hours in serum-free RPMI with penicillin/streptomycin, glucose, and L-glutamine. StIP-TAC treatment was prepared with SAINT-Protein reagent according to manufacturer protocol (Synvolux) and added to cells at a final concentration of 10 µM for 5 hours. For phosphorylation studies, cells were additionally stimulated with 50 µM forskolin for 30 minutes before harvesting. For H89-treated cells, 50 μM H89 was added 30 minutes before stimulation with forskolin. For degradation studies, cells were co-treated with 10 μM MG-132 (Selleck Chemicals) alongside StIP-TAC and DMSO treatments for the duration of the 5-hour experiment. […] Cells were harvested in Laemmli sample buffer, boiled for 10 minutes and protein levels were analyzed via western blotting. […]
Biosciences). Western blot fluorescence detection was performed using a LI-COR Odyssey Fc imaging system. […]
Table S1. Peptide and PROTAC sequences, expected and observed masses determined via HPLC-MS. […]
Figure S8: StIP-TAC inhibits phosphorylation of the PKA substrate VASP. […] (B) Densitometric quantification of Western blots […]
reduction in phosphorylated VASP in cells treated with H89 and StIP-TAC with SAINT Protein reagent. Quantification was performed via Li-COR Image Studio. **p=0.010; ***p<0.001; ns, not significant as assessed by one-way ANOVA and Bonferroni’s multiple comparisons test. […]

[2] = tested on: phospho serine/threonine PKA substrate; test: PKA substrate phosphorylation in forskolin-stimulated cells, Western blot; format: cell-based; conditions: MDA-MB-231 cells, 50 µM H89 added 30 min before 50 µM forskolin (30 min); n = 3
Procedure: as §1
Cell-based PROTAC activity assays. MDA-MB-231 cells were grown on 6-well tissue culture plates (BD Biosciences). Cells were serum-starved for 24 hours in serum-free RPMI with penicillin/streptomycin, glucose, and L-glutamine. StIP-TAC treatment was prepared with SAINT-Protein reagent according to manufacturer protocol (Synvolux) and added to cells at a final concentration of 10 µM for 5 hours. For phosphorylation studies, cells were additionally stimulated with 50 µM forskolin for 30 minutes before harvesting. For H89-treated cells, 50 μM H89 was added 30 minutes before stimulation […]
with forskolin. […]
Cells were harvested in Laemmli sample buffer, boiled for 10 minutes and protein levels were analyzed via western blotting. For control experiments, cells were incubated for 5 hours with an equivalent volume of DMSO or SAINT-Protein to the above studies, with or without forskolin stimulation.
To assess PKA degradation, anti-PKAc (1:1000, BD Biosciences) and anti-GAPDH (1:1000, Proteintech) primary antibodies were used. To assess PKA substrate phosphorylation, anti-phospho serine/threonine PKA substrate (1:1000, Cell Signaling […]
Incubation with primary antibodies was followed by incubation with anti-mouse […]
Biosciences). Western blot fluorescence detection was performed using a LI-COR Odyssey Fc imaging system. Data analysis was performed using GraphPad Prism […]
Figure S7: Western blots for PKA substrate phosphorylation. Experiments were performed in triplicate (n=3) in low passage number MDA-MB-231 cells (ATCC HTB-26). Following t = 24 hour starvation in serum-free RPMI media, cells were treated for t = 5 hours with DMSO, SAINT-Protein Lipid reagent alone, 10 µM StIP-TAC, or 10 µM StIP-TAC incubated with SAINT-Protein Lipid reagent per manufacturer instructions. For forskolin-stimulated treatments, cells were incubated for 30 minutes with 50 µM forskolin […]
prior to harvesting in Laemmli sample buffer. For H89-inhibited treatments, cells were incubated for 30 minutes prior to forskolin stimulation with 50 µM H89. Lysates were run via SDS-PAGE and Western blotting performed anti-phospho serine/threonine PKA substrate (1:1000, Cell Signaling Technology) and anti-tubulin (1:1000, Cell Signaling Technology) primary antibodies.

| Structure (SMILES) | Kd [1] [nM] | Kd ([1]; SD) [nM] | phosphorylated VASP (phospho VASP) | total PKA substrate phosphorylation [2] |
| --- | --- | --- | --- | --- |
| CC[C@H](C)[C@H](NC(=O)[C@H](C)NC(=O)[C@H](CC(N)=O)NC(=O)[C@H](CCCNC(=N)N)NC(=O)[C@H](CCCNC(=N)N)NC(=O)CNC(=O)[C@@H](NC(=O)[C@H](CCCNC(=N)N)NC(=O)CNC(=O)[C@H](CO)NC(=O)[C@H](C)NC(=O)[C@@H](NC(=O)[C@H](Cc1ccccc1)NC(=O)[C@H](CC(=O)O)NC(=O)[C@]1(C)CCCC=CCCC[C@](C)(NC(=O)COCCOCCOCCNC(=O)c2ccc3c(c2)C(=O)OC32c3ccc(O)cc3Oc3cc(O)ccc32)C(=O)N[C@@H]([C@@H](C)O)C(=O)N[C@@H]([C@@H](C)O)C(=O)N[C@@H](Cc2ccc(O)cc2)C(=O)N1)[C@@H](C)CC)[C@@H](C)O)C(N)=O [StIP-3] | 3 to 4 | 3.5 ± 0.1 | – | – |
| O=S(=O)(NCCNC/C=C/c1ccc(Br)cc1)c1cccc2cnccc12 [H89, reference compound] | – | – | statistically significant reduction | statistically significant reduction |
| CC[C@H](C)[C@H](NC(=O)[C@H](C)NC(=O)[C@H](CC(N)=O)NC(=O)[C@H](CCCNC(=N)N)NC(=O)[C@H](CCCNC(=N)N)NC(=O)CNC(=O)[C@@H](NC(=O)[C@H](CCCNC(=N)N)NC(=O)CNC(=O)[C@H](CO)NC(=O)[C@H](C)NC(=O)[C@@H](NC(=O)[C@H](Cc1ccccc1)NC(=O)[C@H](CC(=O)O)NC(=O)[C@]1(C)CCCC=CCCC[C@](C)(NC(=O)[C@@H](NC(=O)[C@H](CC(=O)O)NC(=O)[C@@H](NC(=O)COCCOCCOCCNC(=O)c2ccc3c(c2)C(=O)OC32c3ccc(O)cc3Oc3cc(O)ccc32)[C@@H](C)O)C(C)C)C(=O)N[C@@H]([C@@H](C)O)C(=O)N[C@@H]([C@@H](C)O)C(=O)N[C@@H](Cc2ccc(O)cc2)C(=O)N1)[C@@H](C)CC)[C@@H](C)O)C(N)=O [StIP-4] | 3 to 4 | 3.2 ± 0.1 | – | – |

— PMC11420944, “Targeted Degradation of Protein Kinase A via a Stapled Peptide PROTAC” (ACS Chemical Biology, 2024)
